Test results published in patent US4542169A, “Biomedical devices containing isothiazolones to control bacteria growth” (Rohm and Haas Company, priority 1983, dated 1985).
In brackets after ≈: the same amount, converted by molar mass.

Experiments:
[1] = tested on: Aerobasidium pullulans (A.p); assay: Zone of inhibition, polyvinyl chloride film; assay type: cell-based; conditions: PVC film
[2] = tested on: resistant bacterial colonies; conditions: with time
Pseudomonas aeruginosa = assay: Minimum inhibitory concentration, bacteriostatic activity; assay type: cell-based; conditions: Table III: Active Ingredient MIC
Aspergillus niger = assay: Minimum inhibitory concentration, fungistatic activity; assay type: cell-based; conditions: Table III: Active Ingredient MIC
Staphylococcus aureus = assay: Minimum inhibitory concentration, bacteriostatic activity; assay type: cell-based; conditions: Table III: Active Ingredient MIC
Echerichia coli (E.c.) = assay: Zone of inhibition, polyvinyl chloride film discs on inoculated agar; assay type: cell-based; conditions: PVC film
Procedure: (§1) In a two-liter, three-necked, round-bottom, flask equipped with a mechanical stirrer was placed 100 g of polyvinyl chloride, 590 g of reagent grade tetrahydrofuran, and 40.0 g of dioctylphthalate. This was stirred with gentle heating (35°-40° C.) for two hours to completely dissolve the polyvinyl chloride. Then, a barium/calcium salt of a fatty acid (3.5 g), a phosphite chelating agent (1.5 g), stearic Acid (0.25 g) and epoxidized soy bean oil (7.5 g), were mixed with 21 g of tetrahydrofuran and added to the polyvinyl chloride solution. After stirring at room temperature for 30 minutes, the solution was ready for use.
(§2) Films containing the isothiazolones were cast by first preparing a 0.5 weight percent polyvinyl chloride solution by adding the isothiazolone to the polyvinyl chloride solution. Then, portions of the 0.5% solution were diluted to 0.1 and 0.05%. The films were drawn down on 12"×12" glass plates using a 50 mil-3" wide coating bar and the films were allowed to air dry for 48 hours.
(§3) The films were cut into 1.25 cm discs and placed in agar plates inoculated with Staphlococcus aureus (S.a) or Echerichia coli (E.c.).

[3] = tested on: Staphlococcus aureus (S.a); assay: as above; assay type: cell-based; conditions: PVC film
Procedure: as §1, §2, §3

[4] = tested on: sessile colonization by bacteria or fungi; assay: Implanted silicone rubber urinary catheters in dogs, growth after one week; assay type: in vivo; conditions: silicone catheter; for Agar culture / Visual Examination: one week
Text: These are inserted into large male dogs held in restraining harnesses. The catheters are examined for visible growth and cultured onto agar over a period of one week.

E.c. = assay: Zone of inhibition, silicone rubber film discs on inoculated agar; assay type: cell-based, Echerichia coli; conditions: for Zones: Silicone; for Zone of Inhibition: silicone rubber film
Text: as §3
(§4) The films were cut into discs and tested as in example one against S.a. and E.c.

Solubility in H2O = assay type: physicochemical; conditions: water
Aureobasidium pullulans = assay: Minimum inhibitory concentration, fungistatic activity; assay type: cell-based; conditions: Table III: Active Ingredient MIC
fungi = assay: Observation of incubated plates (antibiotics vs Compound 1): fungal overgrowth; assay type: cell-based; conditions: as the plates were allowed to incubate
Escherichia coli = assay: Minimum inhibitory concentration, bacteriostatic activity; assay type: cell-based; conditions: Table III: Active Ingredient MIC
sessile colonization = assay: Implanted polyvinyl chloride coated pacemakers in dogs, growth after one month; assay type: in vivo; conditions: for Agar culture / Visual Observation: PVC-coated pacemaker, one month
Text: The devices are inserted into dogs and allowed to remain without electrical activation for a period of one month. The devices are then removed and examined visually and by agar cultures from the surface.

Candida albicans (yeast) = assay: Minimum inhibitory concentration, fungistatic activity; assay type: cell-based; conditions: Table III: Active Ingredient MIC
S.a. = assay: Zone of inhibition, silicone rubber film discs on inoculated agar; assay type: cell-based, Staphlococcus aureus; conditions: for Zones: Silicone; for Zones / Zone of Inhibition: S.a.; for Zone of Inhibition: silicone rubber film
Text: as §3, §4

P.a. = assay: Zone of inhibition, silicone film; assay type: cell-based, Pseudomonas aeruginosa
[5] = tested on: Aerobasidium pullulans (A.p); assay: Growth of fungus on polyvinyl chloride film; assay type: cell-based; set-up: key: 0: zero (no growth); 5: five (heavy growth); conditions: PVC film
Procedure: as §1, §2
(§5) In addition to zones of inhibition, the films were observed by growth of fungus on the film and rated from zero (no growth) to five (heavy growth).

Aspergillis niger (A.n.) [6] = assay: Growth of fungus on polyvinyl chloride film; assay type: cell-based; set-up: key: 0: zero (no growth); 5: five (heavy growth); conditions: PVC film
Procedure: as §1, §2, §5

Aspergillis niger (A.n.) [7] = assay: Zone of inhibition, polyvinyl chloride film; assay type: cell-based; conditions: PVC film
[8] = tested on: Pseudomonas aeruginosa (P.a.); assay: Zone of inhibition, polyvinyl chloride (vinyl) film discs; assay type: cell-based; conditions: vinyl film
Procedure: as §1, §3
Discs were tested against Pseudomonas aeruginosa (P.a.). The 1.0% films gave a slight zone of inhibition while the 5.0% film gave a 1 mm zone of inhibition.

SMILES: O=c1c(Cl)c(Cl)sn1C1CCCCC1 [Compound 1, 4,5-Dichloro-N--cyclohexyl-isothiazolin-3-one]
- Zone of Inhibition ([1]; 0.05%): 0 mm
- Zone of Inhibition ([1]; 0.1%): 0 mm
- Zone of Inhibition ([1]; 0.5%): 5.3 mm
- resistant bacterial colonies on plates [2]: ability to suppress all species and not permit the growth of antibiotic resistant species
- MIC (Pseudomonas aeruginosa): 62 µg/mL (≈ 246 µM)
- MIC (Aspergillus niger): 0.5 µg/mL (≈ 1.98 µM)
- MIC (Staphylococcus aureus): 10 µg/mL (≈ 39.7 µM)
- Zone of Inhibition (Echerichia coli (E.c.); 0.05%): 0.8 mm
- Zone of Inhibition (Echerichia coli (E.c.); 0.1%): 1.8 mm
- Zone of Inhibition (Echerichia coli (E.c.); 0.5%): 4.8 mm
- Zone of Inhibition ([3]; 0.05%): 1.8 mm
- Zone of Inhibition ([3]; 0.1%): 4.3 mm
- efficacy in resisting sessile colonization [4]: resisting sessile colonization by bacteria or fungi
- Agar culture ([4]; 0.05% by weight): +2
- Visual Examination ([4]; 0.05% by weight): slight slime
- Agar culture ([4]; 0.1% by weight): +1
- Visual Examination ([4]; 0.1% by weight): clean
- Agar culture ([4]; 0.5% by weight): 0
- Visual Examination ([4]; 0.5% by weight): clean
- Agar culture ([4]; 1.0% by weight): 0
- Visual Examination ([4]; 1.0% by weight): clean
- Zones (E.c.; 1.0%): 16.3 mm
- Zones (E.c.; 5.0%): 16.3 mm
- Zones (E.c.; .20%): 14.3 mm
- Zone of Inhibition (E.c.; Conc. 10): 0.1 mm
- Zone of Inhibition (E.c.; Conc. 100): 5.5 mm
- Zone of Inhibition (E.c.; Conc. 1000): 13.0 mm
- solubility (Solubility in H2O): 91 µg/mL (≈ 361 µM)
- MIC (Aureobasidium pullulans): 0.5 µg/mL (≈ 1.98 µM)
- overgrowth of plates by fungi (fungi): clean
- MIC (Escherichia coli): 16 µg/mL (≈ 63.5 µM)
- Agar culture (sessile colonization; 0.05%): +3
- Visual Observation (sessile colonization; 0.05%): slime covered
- Agar culture (sessile colonization; 0.1%): +1
- Visual Observation (sessile colonization; 0.1%): slight slime layer
- Agar culture (sessile colonization; 0.5%): trace
- Visual Observation (sessile colonization; 0.5%): clean
- Agar culture (sessile colonization; 1.0%): 0
- Visual Observation (sessile colonization; 1.0%): clean
- efficacy in resisting sessile colonization (sessile colonization; treated polyvinyl chloride, compared to untreated control): resisting sessile colonization, particularly as compared to untreated control
- MIC (Candida albicans (yeast)): 0.5 µg/mL (≈ 1.98 µM)
- bacteriocide activity compared with the best commercial antibiotics (S.a.; PVC and silicone films, Table E): essential equivalency
- Zones (S.a.; 1.0%): 20.3 mm
- Zones (S.a.; 5.0%): 20.3 mm
- Zones (S.a.; .20%): 17.8 mm
- Zone of Inhibition (S.a.; Conc. 10): 0.8 mm
- Zone of Inhibition (S.a.; Conc. 100): 6.8 mm
- Zone of Inhibition (S.a.; Conc. 1000): 16.3 mm
- Zones (P.a.; 1.0%): 3.3 mm
- Zones (P.a.; 5.0%): 3.3 mm
- Zones (P.a.; .20%): 0.8 mm
- Growth on Film ([5]; 0.05%): 0
- Growth on Film ([5]; 0.1%): 0
- Growth on Film ([5]; 0.5%): 0
- Growth on Film (Aspergillis niger (A.n.) [6]; 0.05%): 1
- Growth on Film (Aspergillis niger (A.n.) [6]; 0.1%): 0
- Growth on Film (Aspergillis niger (A.n.) [6]; 0.5%): 0
- Zone of Inhibition (Aspergillis niger (A.n.) [7]; 0.05%): 0 mm
- Zone of Inhibition (Aspergillis niger (A.n.) [7]; 0.1%): 0 mm
- Zone of Inhibition (Aspergillis niger (A.n.) [7]; 0.5%): 5.3 mm
- Zone of Inhibition ([8]; 1.0% by weight): slight
- Zone of Inhibition ([8]; 5.0% by weight): 1 mm
